Source: patent publication US8877928B2 (Shandong University, priority 2010, dated 2014)

Legend:
[1] = tested on: HT-29; test: cells; settings: Homo sapiens, HT-29, read-out: IC50 HT 29
Method: (§1) All cell lines were obtained from the American Type Culture Collection, and grown in the following media: COLO 205 and OVCAR-3 (RPMI 1640, containing 4.5 g/L glucose, 10 mM HEPES, 1 mM sodium pyruvate, 10% FBS); HT-29 (McCoy's 5a, containing 1.5 mM L-glutamine, 10% FBS); A549 (Ham's F12K, containing 10% FBS). All cell lines were maintained in an incubator at 37° C. containing 5% CO2. […] Briefly, the day before the start of the experiment the cells were incubated in a 96-well plate in a quantity of 10,000-20,000/well. […] At the end of the incubation period, an MTS dye was added, and then the colored product formazane as formed was measured by a Spectramax 340PC reader (Molecular Devices, CA) at 490 nm.
(§2) A interval was less than 0.100 μM; B interval was greater than 0.100 μM but less than 0.500 μM; C interval was greater than 0.500 μM but less than 2.000 μM; D interval was greater than 2.000 μM.

[2] = tested on: OVCAR-3; test: cells; settings: Homo sapiens, OVCAR-3, read-out: IC50 OVCAR3
Method: as §1, §2

[3] = tested on: A549; test: cells; settings: Homo sapiens, A549, read-out: IC50 A549
Method: as §1, §2

[4] = tested on: COLO 205; test: cells; settings: Homo sapiens, COLO 205, read-out: IC50 COLO205
Method: as §1, §2

[5] = Study of stability in plasma (disappearance of the conjugate by HPLC); settings: 37° C.
Method: The mixture was quenched with a CH3CN/MeOH mixture (800 μL) in a ratio of 1:1, swirled for 1 minute, and then filtered through a 0.2 μm filter membrane. 30 μl of the resulting filtrate was analyzed by HPLC, to measure the disappearance of the conjugate.

[6] = cited from earlier work
[7] = loss of midline facial features, uniocular, lack of anatomical features from forebrain; cited from earlier work

CC1=C2C[C@H]3[C@@H](CC=C4C[C@@H](O)CC[C@@]43C)[C@@H]2CC[C@]12O[C@@H]1C[C@H](C)CN[C@H]1[C@H]2C [cyclopamine]
IC50 [1]: 100 to 500 nM | IC50 [2]: 100 to 500 nM | IC50 [3]: > 2000 nM | IC50 [4]: 100 to 500 nM | disappearance % 2 h ([5]; 2 h): 32% | disappearance % 4 h ([5]; 4 h): 68% | disappearance % 24 h ([5]; 24 h): 83% | chemical stability at low pH [6]: chemically instable | teratogenicity [7]: teratogenic
